Tested on: CHIKV
Format: cell-based, chikungunya virus

Row | Substance | Score_si3 | Score_si2 | Score_si4 | Score_si1
1 | Hs_NRD1_1 (CAGGGTGAAGCCACTTCATTA; chemistry not given here) | 1.32 |  |  | 
2 | Hs_NRD1_2 (AAGGCTTTCGATTGCCCGGAA; chemistry not given here) |  | 1.41 |  | 
3 | Hs_NRD1_3 (CAAGCAATACCGATACATCAA; chemistry not given here) |  |  | 0.87 | 
4 | Hs_NUDT1_4 (CCGGGTTTCATCTGGAATTAA; chemistry not given here) |  | 1.96 |  | 
5 | Hs_NUDT1_5 (CCGCGAGGTGGACACGGTCTA; chemistry not given here) |  |  |  | 2.08
6 | Hs_ODZ3_1 (CCGGGCTGTGTCAAAGAATAA; chemistry not given here) |  |  |  | 1.47
7 | Hs_ODZ3_2 (CCCAAATTTGATTTAACAGAA; chemistry not given here) |  |  | 0.82 | 
8 | Hs_ODZ3_4 (CACGAGGAAACTACAATTCCA; chemistry not given here) | 1 |  |  | 
9 | Hs_P4HB_2 (CTATTTCACAATCGAATTGAA; chemistry not given here) | 1.09 |  |  | 
10 | Hs_P4HB_5 (CAGGACGGTCATTGATTACAA; chemistry not given here) |  | 1.15 |  | 
11 | Hs_P4HB_6 (AAGATGAACTGTAATACGCAA; chemistry not given here) |  |  |  | 1.38
12 | Hs_PCBP1_2 (TAAGAGTGGAATGTTAATAAA; chemistry not given here) |  |  |  | 1.94
13 | Hs_PCBP1_3 (CACAACTTTATCATCCGCTAA; chemistry not given here) |  | 1.85 |  | 
14 | Hs_PCQAP_1 (CCGCATGATCAACAAGATCGA; chemistry not given here) [reference compound] |  |  |  | -1.12
15 | Hs_PCQAP_10 (CAGCATCTAATTAAATTGCAT; chemistry not given here) [reference compound] | -0.74 |  |  | 
16 | Hs_PD2_1 (ACCGAGGAAGAAATATACAAA; chemistry not given here) |  |  | 1.16 | 
17 | Hs_PD2_2 (CACCATTATTGTGAGCAGCAA; chemistry not given here) |  |  |  | 1.77
18 | Hs_PDLIM5_3 (AAGAGACGGTTTGGCATTTAT; chemistry not given here) |  |  |  | 1.17
19 | Hs_PDLIM5_5 (CAGCAGGGAAACGAACTCCGA; chemistry not given here) |  | 1.07 |  | 

Row | Substance | Score_si3 | Score_si2 | Score_si4 | Score_si1
20 | Hs_PDLIM5_6 (TCCGATGTGCGCCCATTGTAA; chemistry not given here) | 0.87 |  |  | 
21 | Hs_PEX19_1 (ATGGGTGGCTTCATGAATTAA; chemistry not given here) |  |  |  | 1.26
22 | Hs_PEX19_2 (TCCCTTGAGTATTTCAATGTA; chemistry not given here) | 0.58 |  |  | 
23 | Hs_PEX19_3 (CCCATTCAAGATTGTGCCATA; chemistry not given here) |  |  | 0.41 | 
24 | Hs_PEX19_4 (CTGGATCTTATGCAGCAGCTA; chemistry not given here) |  | 0.89 |  | 
25 | Hs_PGD_1 (TAGAAGTGTATTCCTAGGAAA; chemistry not given here) |  |  |  | 3.09
26 | Hs_PHF10_3 (CGGACAGTTCCAGGAATATTA; chemistry not given here) |  | 0.88 |  | 
27 | Hs_PHF10_4 (TCCAGGGAAGACAGAAATCAA; chemistry not given here) | 0.57 |  |  | 
28 | Hs_PHF10_5 (ATGGCAGTGTATGGAATGTAA; chemistry not given here) |  |  |  | 2.93
29 | Hs_PITRM1_1 (TAGGTTCTTCACGTACGGTAA; chemistry not given here) [reference compound] |  |  |  | -1.2
30 | Hs_PITRM1_2 (CCGGTGAATTACGTGGGTGAA; chemistry not given here) [reference compound] |  |  | -0.68 | 
31 | Hs_PITRM1_3 (CAGCGTTGAAAGTTTCCGATA; chemistry not given here) [reference compound] |  | -1.16 |  | 
32 | Hs_PMPCB_4 (TACATTTATAATAGGAGTCCA; chemistry not given here) |  |  | 0.83 | 
33 | Hs_POLDIP3_2 (CCGGCTCAAACTGGGAGTCAA; chemistry not given here) |  |  |  | 2.49
34 | Hs_POLR1A_1 (AAGGTTGATGACTACAGTCAA; chemistry not given here) |  |  |  | 1.93
35 | Hs_POLR1A_2 (TCGGGAGGAATTAGAACAATA; chemistry not given here) |  | 1.23 |  | 
36 | Hs_POU3F2_2 (AAGATGAAAGTTACCACTGAA; chemistry not given here) |  |  |  | 2.65
37 | Hs_PP3856_1 (CTGGACAGTGGTGACCTGCTA; chemistry not given here) |  | 1.53 |  | 
38 | Hs_PP3856_2 (CTGGCTGGAGTCAGTCCTCAT; chemistry not given here) |  |  |  | 2.53

Row | Substance | Score_si3 | Score_si2 | Score_si4 | Score_si1
39 | Hs_PPIL2_1 (CAGGGACAGCCTATTTATACA; chemistry not given here) |  |  | 0.92 | 
40 | Hs_PPIL2_2 (AAGGAGGAGATCCGCATTGAT; chemistry not given here) |  |  |  | 1.35
41 | Hs_PPIL2_3 (CACCAATTTGGACAAGTTCAA; chemistry not given here) |  | 1.2 |  | 
42 | Hs_PPP1R8_6 (TACAAATAAAGATGCCCTAAA; chemistry not given here) |  | 0.7 |  | 
43 | Hs_PPP1R8_8 (AACCCTGAAGCTGTAAATGAA; chemistry not given here) | 0.62 |  |  | 
44 | Hs_PPP1R15A_3 (CAGGATCAGCCGAGGATGAAA; chemistry not given here) | 1.25 |  |  | 
45 | Hs_PRPF4B_2 (sense CACCCTTAAATCGTTATTAAT; chemistry not given here) |  |  | 0.63 | 
46 | Hs_PRPF4B_5 (sense TCGTCTGATGATAACCTTGAA; chemistry not given here) |  |  |  | 2.38
47 | Hs_PRPF40A_2 (sense CTGGAAAGCCTTACTATTATA; chemistry not given here) |  |  |  | 2.41
48 | Hs_PRSS15_2 (sense CAGCCTTATGTCGGCGTCTTT; chemistry not given here) |  | 1.66 |  | 
49 | Hs_PRSS15_3 (sense TAGAAGCTATTTAATGATTAA; chemistry not given here) |  |  | 1.21 | 
50 | Hs_PRSS15_4 (sense CCGGGACATCATTGCCTTGAA; chemistry not given here) |  |  |  | 1.74
51 | Hs_PSD3_1 (sense CTCCATTGTCTTACTAACAAA; chemistry not given here) [reference compound] |  |  |  | -3.63
52 | Hs_PSD3_2 (sense ACCAAACGTGTTTAAACTTAA; chemistry not given here) [reference compound] |  |  | -0.52 | 
53 | Hs_PTBP1_2 (sense ATGGTATGAGTGTAATCTAAA; chemistry not given here) [reference compound] |  |  |  | -1.35
54 | Hs_PTBP1_3 (sense CGACATAATCTCTGTATTATA; chemistry not given here) [reference compound] | -0.58 |  |  | 
55 | Hs_PTBP1_5 (sense CACGCACATTCCGTTGCCTTA; chemistry not given here) [reference compound] |  | -1.23 |  | 
56 | Hs_PTBP1_18 (sense GCGCGTGAAGATCCTGTTCAA; chemistry not given here) [reference compound] |  |  | -0.53 | 
57 | Hs_PTPN4_3 (sense AGCACGTACCTTAGAACTCTA; chemistry not given here) | 1.47 |  |  | 

From PMC4865845, “A human genome-wide loss-of-function screen identifies effective chikungunya antiviral drugs” (Nature Communications, 2016)
